Test results reported in US11512280B2, “Method for culturing spore-forming bacteria, and method for producing useful substance” (priority 2016, dated 2022).

Key:
Assay type in all cases: cell-based
[1] = tested on: Bacillus subtilis MBI-600; assay: Culture of Bacillus subtilis with sporulation-inhibiting substance, 64 hours (Example 1)
Method: Using a 500 ml Erlenmeyer flask (with baffles), each 100 ml of media listed in Table 1 was prepared and then autoclave sterilization was carried out. Glucose was separately sterilized and aseptically mixed in order to avoid Maillard reaction.
According to the conditions of each test section, the filter-sterilized aqueous solution of each sporulation-inhibiting substance was added aseptically to each medium. One loopful of Bacillus subtilis MBI-600 was taken from a colony grown on a nutrient agar medium, inoculated, and then cultured with shaking at 30° C. and 150 rpm for 64 hours.
(§1) Each of the thus obtained culture liquid was diluted 10-fold with sterile water, and then the bacterial cell concentration (vegetative cells and spores) and the sporulation rate (spore concentration/bacterial cell concentration) were measured using an optical microscope and a bacterial cell counter.

[2] = tested on: Bacillus thuringiensis NBRC 101235 strain; assay: Culture of Bacillus thuringiensis with sporulation-inhibiting substance, 40 hours (Example 3); conditions: for Bacterial cell concentration / Spore concentration / Sporulation rate: 40 hours culture
Method: Using a 500 ml Erlenmeyer flask (with baffles), each 100 ml of media listed in Table 1 was prepared and then autoclave sterilization was carried out. Note that glucose was separately sterilized and aseptically mixed in order to avoid Maillard reaction.
According to the conditions of each test section, the filter-sterilized aqueous solution of each sporulation-inhibiting substance was added aseptically to each medium. According to the conditions of each test section, one loopful of Bacillus thuringiensis NBRC 101235 strain was taken from a colony grown on a nutrient agar medium, inoculated, and then cultured with shaking at 30° C. and 150 rpm for 40 hours.
as §1

[3] = tested on: Bacillus subtilis MBI-600 strain; assay: Culture of Bacillus subtilis in Table 5 medium with sporulation-inhibiting substance, 50 hours, cell and spore counts (Example 4); conditions: for Bacterial cell concentration: carbon content 18.2 g/L
Method: Using a 500 ml Erlenmeyer flask (with baffles), each 100 ml of media listed in Table 5 was prepared and then autoclave sterilization was carried out. Note that glucose was separately sterilized and aseptically mixed in order to avoid Maillard reaction. According to the conditions of each test section, the filter-sterilized aqueous solution of each sporulation-inhibiting substance was added aseptically to each medium. According to the conditions of each test section, one loopful of Bacillus subtilis MBI-600 strain was taken from a colony grown on a nutrient agar medium, inoculated, and then cultured with shaking at 30° C. and 150 rpm. Fifty (50) hours after the start of culture, culture was stopped.

[4] = tested on: Bacillus subtilis MBI-600 strain; assay: Surfactin production by Bacillus subtilis, HPLC of culture supernatant (Example 4)
Method: Using a 500 ml Erlenmeyer flask (with baffles), each 100 ml of media listed in Table 5 was prepared and then autoclave sterilization was carried out. Note that glucose was separately sterilized and aseptically mixed in order to avoid Maillard reaction.
According to the conditions of each test section, the filter-sterilized aqueous solution of each sporulation-inhibiting substance was added aseptically to each medium. According to the conditions of each test section, one loopful of Bacillus subtilis MBI-600 strain was taken from a colony grown on a nutrient agar medium, inoculated, and then cultured with shaking at 30° C. and 150 rpm.
Fifty (50) hours after the start of culture, culture was stopped.
Each of the obtained cultured liquid was centrifuged using a refrigerated centrifuge (TOMY SEIKO Co., Ltd. MX-307) at 10,000 rpm and 20° C. for 30 minutes, thereby collecting a supernatant.
To a solid-phase extraction column (Nihon Waters K.K. Oasis HLB 3 cc (400 mg) LP Extraction Cartridge), 3 ml of 0.1% TFA-containing acetonitrile was added and allowed to pass therethrough, and then 3 ml of 0.1% TFA-containing distilled water was added to pass through the column. Two ml of the thus collected centrifugal supernatant of each culture medium was added to pass through the column, 6 ml of 0.1% TFA-containing distilled water, and then 3 ml of 0.1% TFA-containing acetonitrile/distilled water (20:80, v/v) were allowed to pass through the column in sequence for washing. Next, 3 ml of 0.1% TFA-containing acetonitrile/distilled water (90:10, v/v) was allowed to pass through the column, thereby collecting an eluate. 0.1% TFA-containing acetonitrile/distilled water (90:10, v/v) was added, so that the amount of the collected solution was 4 ml, and then HPLC analysis was conducted under the following conditions.
HPLC: Agilent Technologies, Inc. 1260 Infinity […]
Each medium was compared with the authentic sample in terms of peak area detected at the elution time of 27.6 minutes and that of 28.4 minutes, thereby calculating the surfactin concentration in the culture medium.

[5] = 0.1 ppm added, 64 hours culture
[6] = 1.0 ppm added, 64 hours culture

Structure (SMILES): CC[C@H]1OC(=O)[C@H](C)[C@@H](O[C@H]2C[C@@](C)(OC)[C@@H](O)[C@H](C)O2)[C@H](C)[C@@H](O[C@@H]2O[C@H](C)C[C@H](N(C)C)[C@H]2O)[C@](C)(O)C[C@@H](C)C(=O)[C@H](C)[C@@H](O)[C@]1(C)O [Erythromycin]
- effect of inhibiting sporulation ([1]; 0.1 ppm): not observed
- Spore concentration [1, 5]: 2.8e+09 mL⁻¹
- Sporulation rate [1, 5]: 80%
- Bacterial cell concentration ([1]; 0.1 ppm added, 64 hours culture, carbon content 9.1 g/L): 3.5e+09 mL⁻¹
- effect of inhibiting sporulation ([1]; 1 ppm): observed
- Bacterial cell concentration [1, 6]: 6.2e+09 mL⁻¹
- Sporulation rate [1, 6]: 0%
- bacterial cell concentrations as the concentration of the substance increased ([1]; trend over tested concentrations): tended to increase
- bacterial cell concentration and spore concentration ([2]; 0.05 ppm): tended to increase
- Bacterial cell concentration ([2]; 0.05 ppm): 1.5e+09 mL⁻¹
- Spore concentration ([2]; 0.05 ppm): 1.1e+09 mL⁻¹
- Sporulation rate ([2]; 0.05 ppm): 73%
- effect of inhibiting sporulation ([2]; 0.1 ppm): confirmed
- Bacterial cell concentration ([2]; 0.1 ppm): 2e+09 mL⁻¹
- Spore concentration ([2]; 0.1 ppm): 3e+08 mL⁻¹
- Sporulation rate ([2]; 0.1 ppm): 16%
- Spore concentration ([3]; 0.1 ppm and 0.2 ppm): tended to increase
- Spore concentration ([3]; 0.1 ppm, 50 hours culture): 8e+09 mL⁻¹
- Sporulation rate ([3]; 0.1 ppm, 50 hours culture): 99%
- Bacterial cell concentration ([3]; 0.1 ppm, 50 hours culture): 8.1e+09 mL⁻¹
- Spore concentration ([3]; 0.2 ppm, 50 hours culture): 6.9e+09 mL⁻¹
- Sporulation rate ([3]; 0.2 ppm, 50 hours culture): 100%
- Bacterial cell concentration ([3]; 0.2 ppm, 50 hours culture): 6.9e+09 mL⁻¹
- Surfactin concentration ([4]; 0.1 ppm and 0.2 ppm): tended to increase
- Surfactin concentration ([4]; 0.1 ppm, 50 hours culture, in the culture medium): 58.5 ppm
- Surfactin concentration ([4]; 0.2 ppm, 50 hours culture, in the culture medium): 75.7 ppm
